From patent US9790504B2, “Anti-tumor therapy” (The University of Chicago, priority 2013, dated 2017)
Entries after “also recorded” stand apart in the source; their conditions may differ.

Columns and labels:
[1] = tested on: Stat1; test: Western blot of interferon-mediated Stat1 activation with Jak inhibitors; type: cell-based; conditions: β- and γ-interferon (Type I and Type II IFN) signaling, SCC61 cells
Experimental: (§1) Treatment with TG and Rux inhibited β- and γ-interferon-mediated activation of Stat1 and Stat3;
(§2) Total cellular protein was extracted in radioimmunoprecipitation assay buffer with protease inhibitors added (1×PBS, 1% NP40, 0.5% sodium deoxycholate, 0.1% SDS, 1 mmol/L Na3VO4, 2 μg/mL aprotinin, 1 mmol/L phenylmethylsulfonyl fluoride). All samples were normalized by protein concentration using Bradford reagent and standard solution of bovine serum albumin (1 mg/mL). Concentration of all samples was adjusted to 1 mg/mL and equal amount of protein was loaded in each well. For total proteins, 10 μg of protein was loaded per well. Proteins were separated on 7.5%-12% SDS-PAGE (depending on molecular mass of protein) and transferred to polyvinylidene difluoride membranes (PVDF). Total proteins were detected using the rabbit or goat primary Abs. For loading control, the antibodies for actin (I-19) and glyceraldehyde-3-phosphate dehydrogenase (GAPDH; FL-335) were used. All antibodies were purchased from Santa Cruz Biotechnology. Images were quantified with ImageJ software by integration pixel values across the area of specific bands.
(§3) The effects of Jak1/2 and Jak2 inhibitors were investigated on the activation of Stat1 and Stat3 in the context of Type I and Type II IFN signaling. […]

[2] = tested on: Stat3; test: Western blot of interferon-mediated Stat3 activation with Jak inhibitors; type: cell-based; conditions: β- and γ-interferon (Type I and Type II IFN) signaling, SCC61 cells
Experimental: as §1, §2, §3

[3] = tested on: different cell lines; test: Suppression of tumor growth in different cell lines; type: cell-based; conditions: data not shown
[4] = tested on: lung cancer cell lines; test: Clonogenic assay, sensitivity of lung cancer cell lines to drug; type: cell-based
Experimental: (§4) To screen the candidate interferon-stimulated genes, a panel of fifteen individual cancer cell lines were selected from those available in our lab, the ATCC, or affiliated laboratories (see Table No. 3, below). These cell lines were characterized for relative radioresistance using a clonogenic assay. Briefly, the cells were cultured in their appropriate media at 5% CO2 at 37° C. Optimal cell plating concentrations for a p60 dish were determined for each cell line. The majority of cell lines were plated in triplicate at concentrations of 100 cells/plate for control, 1000 cells/plate for 2 Gy, 2000 cells/plate for 5 Gy, and 3000 cells/plate for 8 Gy. Plates were irradiated 24 hours after plating with either 2, 5, or 8 Gy using a Nordion Gammacell ^60Co irradiator operating at a dose rate of ˜18 Gy/minute. Cells were allowed to grow for 10-21 days (depending on the cell line) until colonies were >50 cells. Plates were then fixed with formalin and stained with crystal violet. Colonies with more than 50 cells were counted. Clonogenic survival for Clonogenic data was obtained for all cell lines tested in screen.
In subsequent experiments, 18 lung cancer cell lines were tested for sensitivity to the Jak2 inhibitor SAR302503 (TG) using a clonogenic assay. […] Further, radioresistance was positively correlated with resistance to Jak2 suppression in 11 cell lines. […]

[5] = tested on: H2030 cells; test: Clonogenic assay, ionizing radiation plus TG; type: cell-based; conditions: 5 Gy+1 μM TG; most radioresistant cells
Experimental: as §4
In subsequent experiments, 18 lung cancer cell lines were tested for sensitivity to the Jak2 inhibitor SAR302503 (TG) using a clonogenic assay. […] Further, radioresistance was positively correlated with resistance to Jak2 suppression in 11 cell lines.

[6] = tested on: CW22Rv1 (pStat3-positive) xenografts; test: Xenograft in nude mice treated by ionizing radiation, TG, or their combination; type: in vivo; conditions: constitutively active Jak/Stat signaling
Experimental: (§5) The relative sensitivity of lung cancer cell lines to TG and etoposide—one of the most common drugs in adjuvant chemotherapy of lung cancer was also tested. Subgroups of cell lines were found with relatively high resistance to etoposide (SF>0.5) but relatively sensitive to TG (0.1<SF<0.2; see FIG. 8). As proof of principle, two isogenic cell lines CWRR1 (pStat3-negative, without constitutive activation of Jak/Stat-signaling) and CW22Rv1 (with constitutively active Jak/Stat signaling) were established as xenografts in nude mice and treated by ionizing radiation, TG, or their combination.

[7] = tested on: CWRR1 (pStat3-negative) xenografts; test: as above; type: in vivo; conditions: without constitutive activation of Jak/Stat signaling
Experimental: as §5

[8] = tested on: two lung cancer cell lines; conditions: associated with suppression of the Stat3 pathway; cited from earlier work

Cc1cnc(Nc2ccc(OCCN3CCCC3)cc2)nc1Nc1cccc(S(=O)(=O)NC(C)(C)C)c1 [TG]
phosphorylation (activation) of Stat1 [1]: suppressed; also recorded: inhibited | phosphorylation (activation) of Stat3 [2]: suppressed; also recorded: inhibited | suppression of tumor growth compared to Ruxolitinib [3]: more effectively suppressed tumor growth compared to Ruxolitinib | sensitivity to TG ([4]; 7 relatively radioresistant cell lines of 18 lung cancer cell lines, clonogenic assay): high sensitivity | clonogenic colonies [5]: no clonogenic colonies formed | sensitization to ionizing radiation [6]: successfully sensitized | sensitization to ionizing radiation [7]: not sensitized

Cc1cnc(Nc2ccc(N3CCN(C)CC3)cc2)nc1Nc1cccc(S(=O)(=O)NC(C)(C)C)c1 [TG101209]
radiosensitizing effects [8]: radiosensitizing effects

COc1cc([C@@H]2c3cc4c(cc3[C@@H](O[C@@H]3O[C@@H]5CO[C@@H](C)O[C@H]5[C@H](O)[C@H]3O)[C@H]3COC(=O)[C@H]23)OCO4)cc(OC)c1O [etoposide]
SF (surviving fraction) ([4]; subgroups of lung cancer cell lines with high resistance to etoposide but relatively sensitive to TG): > 0.5
